These results are taken from patent EP0770601A1, “PROPENONE DERIVATIVES” (Kyowa Hakko Kogyo Co., Ltd., priority 1995, dated 1996).

One assay relates to HeLa S3 cells. Nature of the assay: HeLa S3 cell growth inhibition test (neutral red staining). Format: cell-based. The following applies: Homo sapiens, 72 hours culture with test compound, neutral red absorbance at 550 nm. Here is the method: Test Example 1: HeLa S3 Cell Growth Inhibition Test
Each 0.1 ml of HeLa S3 cells which had been prepared to 3 x 10^4 cells/ml using a medium consisted of MEM medium, 10% fetal bovine serum and 2 mM glutamine was distributed in each well of 96 well-microtiter plate. HeLa S3 was cultured at 37°C in a CO2 incubator for one night, each 0.05 ml of test compounds which had been appropriately diluted with the culture solution was added thereto and the mixture was cultured at 37°C for 72 hours in a CO2 incubator. Supernatant was removed, each 0.1 ml of the culture solution containing 0.02% neutral red was added to the residue, the mixture was incubated at 37°C for one hour in a CO2 incubator and the cells were stained. Supernatant was removed and the residue was washed once with physiological saline. Then, the pigment was extracted with 0.001 N hydrochloric acid/30% ethanol and the absorbance at 550 nm was measured by a microplatereader. A concentration of the test compound (IC50) at which the growth of cell is inhibited by 50% was calculated by comparing the absorbance of non-treated cells and that of cells treated with a predetermined concentration of the test compound.

The next assay deals with P388 mouse leukemia. Nature of the assay: Effect upon P388 ascites tumor (increased life span). Format: in vivo. The following applies: consecutive 5 days from 24 hours after implantation of the tumor, male CDF1 mice. Here is the method: Test Example 2: Effect upon P388 Ascites Tumor […] The resultant suspension was administered once 24 hours after implantation of the tumor, or repeatedly for consecutive 5 days from 24 hours after implantation of the tumor. The average survival day (T) in a group was calculated from the survival days of the respective mice in the group administered with the test compound at each dose. On the other hand, the average survival day (C) of a group which was not administered was measured, and the increased life span [ILS (%)] was calculated according to the following equation: [(T - C)/C] x 100 (%) [formula]

The IC50 is the concentration at which inhibition is half-maximal. A low value points to greater potency in that assay. Turning to `CCOc1cc(C(=O)C(C)=Cc2c[nH]c3ccccc23)cc(OCC)c1OCC` [Compound 4, 3-(Indol-3-yl)-2-methyl-1-(3,4,5-triethoxyphenyl)-2-propen-1-one], in the assay on HeLa S3 cells, the midpoint of inhibition, the IC50, lay at 22 nM.

Turning to `CCOc1c(OC)cc(C(=O)C(C)=Cc2c[nH]c3ccccc23)cc1OC` [Compound 5, 1-(4-Ethoxy-3,5-dimethoxyphenyl)-3-(indol-3-yl)-2-methyl-2-propen-1-one], in the assay on P388 mouse leukemia (dose 3.1 mg/kg), the “ILS (%) [Dose (mg/kg)] five consec. admin.” value (“ILS (%)” below) is 41 ( 3.1) %. In addition, the half-maximal inhibitory concentration (IC50) with HeLa S3 cells was determined as 2.5 nM. The corresponding values for `COc1cc(C(=O)C(C)=Cc2c[nH]c3ccccc23)cc(OC)c1OCC(C)C` [Compound 6, 3-(Indol-3-yl)-1-(4-isobutyloxy-3,5-dimethoxyphenyl)-2-methyl-2-propen-1-one] are 43 ( 3.1) % and 9.4 nM. With `CCc1c(OC)cc(C(=O)C(C)=Cc2c[nH]c3ccccc23)cc1OC` [Compound 7, 1-(4-Ethyl-3-dimethoxyphenyl)-3-(indol-3-yl)-2-methyl-2-propen-1-one], the “ILS (%)” value in the assay on P388 mouse leukemia (dose 25 mg/kg) was 40 ( 25) %. The same molecule came in with an IC50 with HeLa S3 cells of 64 nM. As for `COc1cc(C(=O)C(C)=Cc2c[nH]c3ccccc23)cc2c1OCO2` [Compound 8, 3-(Indol-3-yl)-1-(3-methoxy-4,5-methylenedioxyphenyl)-2-methyl-2-propen-1-one], the “ILS (%)” value in the assay with P388 mouse leukemia (dose 6.3 mg/kg) is reported as 50 ( 6.3) %. The molecule also returned an IC50 with HeLa S3 cells of 6.1 nM. In the assay with HeLa S3 cells, `CCOc1cc(C(=O)C(C)=Cc2c[nH]c3ccccc23)cc(OC)c1OC` [Compound 9, 1-(5-Ethoxy-3,4-dimethoxyphenyl)-3-(indol-3-yl)-2-methyl-2-propen-1-one] showed an IC50 of 3.2 nM.

As for `COc1cc(C(=O)C(C)=Cc2c[nH]c3ccccc23)cc(Br)c1OC` [Compound 10, 1-(3-Bromo-4-dimethoxyphenyl)-3-(indol-3-yl)-2-methyl-2-propen-1-one], it took 6.6 nM to reach half-maximal inhibition with HeLa S3 cells (IC50). Still for that read-out and setting: under `CCOc1c(OC)cc(C(=O)C(C)=Cc2c[nH]c3cc(C)ccc23)cc1OC` [Compound 11, 1-(4-Ethoxy-3,5-dimethoxyphenyl)-2-methyl-3-(6-methylindol-3-yl)-2-propen-1-one] stands 6.7 nM; under `COc1cc(C(=O)C(C)=Cc2c[nH]c3cc(C)ccc23)cc2c1OCO2` [Compound 12, 1-(3-Methoxy-4,5-methylenedioxyphenyl)-2-methyl-3-(6-methylindol-3-yl)-2-propen-1-one], 2.3 nM; under `COc1cc(C(=O)C(C)=Cc2c[nH]c3cc(C)ccc23)cc(OC)c1OCC(C)C` [Compound 15, 1-(4-Isobutyloxy-3,5-dimethoxyphenyl)-2-methyl-3-(6-methylindol-3-yl)-2-methyl-2-propen-1-one], 18 nM.

For `CCOc1c(OC)cc(C(=O)C(C)=Cc2c[nH]c3cc(CC)ccc23)cc1OC` [Compound 16, 1-(4-Ethoxy-3,5-dimethoxyphenyl)-3-(6-ethylindol-3-yl)-2-methyl-2-propen-1-one], the IC50 with HeLa S3 cells came to 6.2 nM. Regarding `CCOc1c(OC)cc(C(=O)C(C)=Cc2c[nH]c3cc(Cl)ccc23)cc1OC` [Compound 18, 3-(6-Chloroindol-3-yl)-1-(4-ethoxy-3,5-dimethoxyphenyl)-2-methyl-2-propen-1-one], the IC50 with HeLa S3 cells came to 6.3 nM. The same measure, in the same setting: under `CCCOc1c(OC)cc(C(=O)C(C)=Cc2c[nH]c3cc(C)ccc23)cc1OC` [Compound 19, 1-(3,5-Dimethoxy-4-propoxyphenyl)-2-methyl-3-(6-methylindol-3-yl)-2-propen-1-one] stands 5.2 nM; under `CCCCOc1c(OC)cc(C(=O)C(C)=Cc2c[nH]c3cc(C)ccc23)cc1OC` [Compound 20, 1-(4-Buthoxy-3,5-dimethoxyphenyl)-2-methyl-3-(6-methylindol-3-yl)-2-propen-1-one], 6.1 nM.

`COc1ccc(C(=O)C(C)=Cc2c[nH]c3ccccc23)c(OC)c1OC` [Compound 24, 3-(Indol-3-yl)-2-methyl-1-(2,3,4-trimethoxyphenyl)-2-propen-1-one] displayed an IC50 in the assay with HeLa S3 cells of 22 nM.
